Reference: article PMC4383465 (European journal of pharmacology, 2014)
Values joined by “and” are separate entries in the source; they are usually repeats but may differ in a detail not shown here. Equal values may be shown once. Marks after values point to notes of the source that are not given here.

What was measured:
[1] = biological target: cannabinoid type-1 receptors (Mus musculus, UniProt P47746); settings: read-out: [3H]CP binding Ki, ref Brents et al., 2011; cited from earlier work
[2] = biological target: cannabinoid type-1 receptors endogenously expressed in Neuro2A cells (Mus musculus, UniProt P47746); assay: Intracellular cAMP levels; assay type: cell-based; settings: for CB1R intrinsic activity: modulation of AC-activity compared to full agonist CP-55,940; for effect on intracellular cAMP compared to basal levels: 10 μM
[3] = biological target: human cannabinoid type-2 receptors (Homo sapiens, UniProt P34972); assay type: binding; settings: for Selectivity CB1/CB2: CB1-Ki value divided CB2-Ki value
[4] = biological target: human cannabinoid type-2 receptors stably expressed in CHO-hCB2 cells (Homo sapiens, UniProt P34972); assay: Intracellular cAMP levels; assay type: cell-based; settings: for CB2R intrinsic activity: modulation of AC-activity compared to full agonist CP-55,940
[5] = up to a dose of 120 mg/kg; ref Geng et al., 2009; cited from earlier work
[6] = after oral delivery, plasma; ref Al-Ghananeem et al., 2007; cited from earlier work

Chain of cannabinoid type-1 receptors endogenously expressed in Neuro2A cells (P47746 whole entry): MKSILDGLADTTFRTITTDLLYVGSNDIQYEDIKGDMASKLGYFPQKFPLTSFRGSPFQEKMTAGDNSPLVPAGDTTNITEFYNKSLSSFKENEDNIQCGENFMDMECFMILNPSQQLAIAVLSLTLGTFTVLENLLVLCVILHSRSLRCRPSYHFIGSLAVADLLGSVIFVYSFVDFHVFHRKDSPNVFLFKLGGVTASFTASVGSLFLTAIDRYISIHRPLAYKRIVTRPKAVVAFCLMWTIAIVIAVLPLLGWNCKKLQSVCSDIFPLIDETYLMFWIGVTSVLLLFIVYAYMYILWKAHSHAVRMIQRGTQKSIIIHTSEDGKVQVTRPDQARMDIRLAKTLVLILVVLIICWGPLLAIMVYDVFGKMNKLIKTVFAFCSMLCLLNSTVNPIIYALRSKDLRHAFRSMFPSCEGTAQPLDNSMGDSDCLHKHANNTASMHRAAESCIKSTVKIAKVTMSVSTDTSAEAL
Chain of human cannabinoid type-2 receptors (P34972 whole entry): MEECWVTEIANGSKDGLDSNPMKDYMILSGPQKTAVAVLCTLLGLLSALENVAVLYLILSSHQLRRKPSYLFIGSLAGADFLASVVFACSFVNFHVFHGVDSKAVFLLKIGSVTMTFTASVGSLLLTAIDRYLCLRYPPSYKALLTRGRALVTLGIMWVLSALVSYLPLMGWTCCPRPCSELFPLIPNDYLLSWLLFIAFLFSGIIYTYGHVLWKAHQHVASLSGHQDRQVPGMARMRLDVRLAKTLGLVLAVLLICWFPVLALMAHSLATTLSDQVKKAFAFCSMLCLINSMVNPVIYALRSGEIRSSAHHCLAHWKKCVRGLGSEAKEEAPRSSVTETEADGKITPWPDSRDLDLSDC
Chain of human cannabinoid type-2 receptors stably expressed in CHO-hCB2 cells (P34972 whole entry): as above
Chain of cannabinoid type-1 receptors (P47746 whole entry): as the sequence (P47746 whole entry) above

Row | Structure (SMILES) | Ki [1] [nM] | reduction in intracellular cAMP levels when administered alone ([2]; EC90 concentration (10 nM), Neuro2A cells) | Adenylyl Cyclase Inhibition Imax (% Inhibition) ([2]; concentration-effect curve, intact Neuro2A cells, 10 μM forskolin) | CB1R intrinsic activity [2] | decrease in intracellular cAMP levels ([2]; screen, 1 μM, Neuro2A cells) | Selectivity CB1/CB2 [3] | intrinsic activity from full concentration-effect curves ([4]; CHO-hCB2 cells) | Adenylyl Cyclase Inhibition Imax (% Inhibition) ([4]; concentration-effect curve, intact CHO-hCB2 cells, negative = increase in cAMP) | CB2R intrinsic activity [4] | effect on intracellular cAMP compared to basal levels ([2]; screen, Neuro2A cells) | selectivity for binding to cannabinoid type-2 relative to type-1 receptors [3] [fold] | acute toxicity [5] | AUC [6] [ng·kg·min/mL/mg] | average Cmax [6] | increase in cAMP concentrations above basal levels ([4]; screen, 10 μM, CHO-hCB2 cells)
1 | CCCCCCC(C)(C)c1ccc([C@@H]2C[C@H](O)CC[C@H]2CCCO)c(O)c1 [CP-55,940, reference compound] | 0.26 ± 0.1 | 45.7 +/− 3.7% | 42.4±3.8 % Inhibition and 42.4 ± 3.8^a % Inhibition | Agonist | 64.1 +/− 1.6% | – | – | – | – | – | – | – | – | – | –
2 | O=C1/C(=C/c2cn(Cc3ccc(Cl)cc3)c3ccccc23)N2CCC1CC2 [Compound 1] | – | – | – | Neutral Antagonist | – | 1.56 | full agonists | 63.0 ± 5.2^a,b % Inhibition | Agonist | did not significantly alter cAMP concentrations | – | – | – | – | –
3 | OC1/C(=C/c2cn(Cc3ccccc3)c3ccccc23)N2CCC1CC2 (centres unmarked) [Compound 8, (Z)-2-((1-benzyl-1H-indol-3-yl)methylene)quinuclidin-3-ol] | – | – | – | Neutral Antagonist | – | – | – | – | Agonist | did not significantly alter cAMP concentrations | 10 | did not produce any acute toxicity | 3561 ± 670 | 1,710 ± 503 ng/ml | –
4 | COC(=O)c1ccc(Cn2cc(/C=C3/C(=O)C4CCN3CC4)c3ccccc32)cc1 [Compound 4] | – | – | – | Inverse Agonist | – | 1.62 | – | – | Inverse Agonist | significant elevations in intracellular cAMP above basal levels | – | – | – | – | 278 +/− 38.6%
